Read-outs that look alike come from different tables or passages of the source. Each block holds one molecule with its values, some of them ahead of it.
Experiments:
GR [1] = molecular target: T1, GR (Homo sapiens, UniProt P04150); assay: 3H-dexamethasone displacement assay on cells (Ki); assay type: binding
T1 construct: evaluated using ^3H-ligand displacement assays on cells; endogenous in cells; host or cells: DU145
T1 sequence (P04150 1-777): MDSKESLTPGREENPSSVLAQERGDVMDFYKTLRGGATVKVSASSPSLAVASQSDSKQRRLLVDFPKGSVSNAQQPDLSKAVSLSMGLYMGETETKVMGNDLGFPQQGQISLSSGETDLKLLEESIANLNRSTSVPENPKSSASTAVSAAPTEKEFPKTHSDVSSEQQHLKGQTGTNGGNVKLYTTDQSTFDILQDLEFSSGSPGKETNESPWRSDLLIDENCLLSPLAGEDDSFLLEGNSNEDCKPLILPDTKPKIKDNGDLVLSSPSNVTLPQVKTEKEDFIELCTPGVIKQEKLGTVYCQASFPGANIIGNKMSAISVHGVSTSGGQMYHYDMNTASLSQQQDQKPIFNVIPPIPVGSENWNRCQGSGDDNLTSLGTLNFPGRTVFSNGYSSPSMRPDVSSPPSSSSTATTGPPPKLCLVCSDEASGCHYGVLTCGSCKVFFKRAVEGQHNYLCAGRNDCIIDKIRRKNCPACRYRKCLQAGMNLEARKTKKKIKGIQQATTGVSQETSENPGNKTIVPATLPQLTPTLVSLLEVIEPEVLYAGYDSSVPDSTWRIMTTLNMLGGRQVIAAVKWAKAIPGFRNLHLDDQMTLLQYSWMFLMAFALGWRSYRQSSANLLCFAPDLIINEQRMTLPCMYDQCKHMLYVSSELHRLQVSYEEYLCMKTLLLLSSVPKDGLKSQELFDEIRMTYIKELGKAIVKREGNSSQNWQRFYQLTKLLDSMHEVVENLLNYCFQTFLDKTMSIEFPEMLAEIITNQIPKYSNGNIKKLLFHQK
Description: Statistics. All statistical analysis was performed using PRISM v8.0 software. An unpaired, two-tailed Student's t test was used to determine statistically significant differences in the data. P<0.05 was reported as statistically significant. For the determination of Ki, the data were fit with a one site nonlinear regression model.
The racemic mixture of the phenol 27 was resolved using a chiral Lux® 5p Cellulose-1 stationary phase with an isocratic mobile phase of 30% water, 70% acetonitrile, and 0.1% trifluoroacetic acid (v v) (FIG. 8A). Several milligrams of one peak were isolated and the compound was recrystallized in hexanes.
The Ki were calculated using a one site Ki fit nonlinear regression with Prism v8.0. The data are representative of two independent assays.

GR [2] = molecular target: T2, GR (Mus musculus, UniProt P06537); assay: 11C radiotracer biodistribution with dexamethasone or Dex-CD blocking; assay type: in vivo; settings: for radiotracer uptake, Adrenal / radiotracer uptake, Blood / radiotracer uptake, Bone / radiotracer uptake, Brain / radiotracer uptake, Brown Fat / radiotracer uptake, Heart / radiotracer uptake, Kidney / radiotracer uptake, Lg. Int. / radiotracer uptake, Liver / radiotracer uptake, Lung / radiotracer uptake, Muscle / radiotracer uptake, Pancreas / radiotracer uptake, Sm. Int. / radiotracer uptake, Spleen / radiotracer uptake, Stomach: 20 min after injection
T2 construct: from tissue; host or cells: tissues of C57BL6/J mice (intact or adrenalectomized), in vivo
T2 sequence (P06537 1-792): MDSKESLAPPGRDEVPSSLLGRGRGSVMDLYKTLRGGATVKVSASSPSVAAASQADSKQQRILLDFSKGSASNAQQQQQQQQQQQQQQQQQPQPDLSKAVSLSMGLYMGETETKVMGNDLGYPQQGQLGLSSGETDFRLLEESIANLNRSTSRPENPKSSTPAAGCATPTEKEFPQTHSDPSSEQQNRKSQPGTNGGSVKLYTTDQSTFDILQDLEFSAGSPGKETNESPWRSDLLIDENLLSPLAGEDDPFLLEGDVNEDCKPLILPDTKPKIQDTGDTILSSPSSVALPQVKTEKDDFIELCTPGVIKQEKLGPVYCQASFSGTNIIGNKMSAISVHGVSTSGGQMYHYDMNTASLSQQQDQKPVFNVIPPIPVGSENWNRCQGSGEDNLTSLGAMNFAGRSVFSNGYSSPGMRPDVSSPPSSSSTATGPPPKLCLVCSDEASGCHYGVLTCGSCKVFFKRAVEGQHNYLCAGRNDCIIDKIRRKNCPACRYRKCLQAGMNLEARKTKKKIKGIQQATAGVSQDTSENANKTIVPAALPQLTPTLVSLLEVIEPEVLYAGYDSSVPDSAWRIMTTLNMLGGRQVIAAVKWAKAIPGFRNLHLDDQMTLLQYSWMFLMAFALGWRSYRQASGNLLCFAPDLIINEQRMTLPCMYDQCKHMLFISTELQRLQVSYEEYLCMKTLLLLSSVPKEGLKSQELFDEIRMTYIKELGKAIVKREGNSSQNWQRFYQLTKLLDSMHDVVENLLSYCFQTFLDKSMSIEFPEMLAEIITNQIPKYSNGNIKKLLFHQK
Description: Animal Studies. All animal experiments were performed under the approval of the Institutional Animal Care and Use Committee (IACUC) at UCSF. C57BL6/J mice (4-6 weeks) were purchased from Charles River. All the mice were housed in a dedicated vivarium with free access to food and water. […] Adrenalectomized mice were purchased from Charles River and provided drinking water supplemented with NaCl (aq) per instructions until the time of the tracer biodistribution study.
Biodistribution Studies. Mice were euthanized after radiotracer (7.4-18.5 MBq in 100-150 μL) injection with CO2 (g) asphyxiation and dissected at dedicated time points post injection. The blood and tissues were collected, washed, dried, and weighed. The activity of each tissue was measured with a gamma counter. All data was decay corrected. PRISM software was used to express a percentage (% ID/g) of the injected dose per gram of tissue.
The P value indicates the result of an unpaired, two-tailed Student's t test between the respective treatment group and vehicle (n=5/group).
Table 10 summarizes biodistribution data collected 20 minutes after injection of ^11C-YJH02 among two treatment arms receiving vehicle or one intraperitoneal injection of the water-soluble dexamethasone-cyclodextrin complex at 10 mg/kg one hour prior to radiotracer administration. The P value indicates the result of an unpaired, two-tailed Student's t test between the respective treatment group and vehicle (n=5/group).

[3] = GR in cells, one site Ki fit, read-out: Ki
[4] = DU145 cells, read-out: affinity (3H-dexamethasone displacement curves)
[5] = mice given Dex-CD 10 mg/kg intraperitoneal one hour prior to radiotracer

SMILES: COc1cccc2c1-c1ccc3c(c1[C@@H](Cc1ccc(F)cc1)O2)C(C)=CC(C)(C)N3 [(R)-YJH08]
Ki (GR [1]; [4]): < 5 nM
Ki (GR [1]; [3]): 3.76 nM

SMILES: COc1cccc2c1-c1ccc3c(c1C(OC)O2)C(C)=CC(C)(C)N3 (stereo not drawn) [YJH04, 5,10-Dimethoxy-2,5-dihydro-2,2,4-trimethyl-1H-[1]benzopyrano[3,4-f]quinolone]
Ki (GR [1]; [3]): 6.22 nM

SMILES: COc1cccc2c1-c1ccc3c(c1C(O)O2)C(C)=CC(C)(C)N3 (stereo not drawn) [YJH03]
Ki (GR [1]; [3]): 6.51 nM

SMILES: COc1cccc2oc(=O)c3c4c(ccc3c12)NC(C)(C)C=C4C [^11C-YJH02]
radiotracer uptake, Adrenal (GR [2]; [5]): 2.37 ± 1.0 % ID/g
radiotracer uptake, Blood (GR [2]; [5]): 1.07 ± 0.1 % ID/g
radiotracer uptake, Bone (GR [2]; [5]): 0.76 ± 0.1 % ID/g
radiotracer uptake, Brain (GR [2]; [5]): 0.34 ± 0.07 % ID/g
radiotracer uptake, Brown Fat (GR [2]; [5]): 3.64 ± 1.0 % ID/g
radiotracer uptake, Heart (GR [2]; [5]): 0.97 ± 0.1 % ID/g
radiotracer uptake, Kidney (GR [2]; [5]): 1.28 ± 0.1 % ID/g
radiotracer uptake, Lg. Int. (GR [2]; [5]): 1.06 ± 0.3 % ID/g
radiotracer uptake, Liver (GR [2]; [5]): 3.75 ± 0.8 % ID/g
radiotracer uptake, Lung (GR [2]; [5]): 1.71 ± 0.2 % ID/g
radiotracer uptake, Muscle (GR [2]; [5]): 0.57 ± 0.1 % ID/g
radiotracer uptake, Pancreas (GR [2]; [5]): 1.76 ± 0.4 % ID/g
radiotracer uptake, Sm. Int. (GR [2]; [5]): 5.80 ± 2.5 % ID/g
radiotracer uptake, Spleen (GR [2]; [5]): 0.76 ± 0.1 % ID/g
radiotracer uptake, Stomach (GR [2]; [5]): 1.81 ± 0.3 % ID/g
radiotracer uptake, Adrenal (GR [2]; mice given vehicle): 6.17 ± 0.7 % ID/g
radiotracer uptake, Blood (GR [2]; mice given vehicle): 1.24 ± 0.1 % ID/g
radiotracer uptake, Bone (GR [2]; mice given vehicle): 0.70 ± 0.1 % ID/g
radiotracer uptake, Brain (GR [2]; mice given vehicle): 0.66 ± 0.1 % ID/g
radiotracer uptake, Brown Fat (GR [2]; mice given vehicle): 4.65 ± 1.1 % ID/g
radiotracer uptake, Heart (GR [2]; mice given vehicle): 1.15 ± 0.2 % ID/g
radiotracer uptake, Kidney (GR [2]; mice given vehicle): 1.38 ± 0.4 % ID/g
radiotracer uptake, Lg. Int. (GR [2]; mice given vehicle): 1.63 ± 0.4 % ID/g
radiotracer uptake, Liver (GR [2]; mice given vehicle): 6.78 ± 1.1 % ID/g
radiotracer uptake, Lung (GR [2]; mice given vehicle): 2.07 ± 0.4 % ID/g
radiotracer uptake, Muscle (GR [2]; mice given vehicle): 0.74 ± 0.1 % ID/g
radiotracer uptake, Pancreas (GR [2]; mice given vehicle): 2.70 ± 0.4 % ID/g
radiotracer uptake, Sm. Int. (GR [2]; mice given vehicle): 10.88 ± 2.7 % ID/g
radiotracer uptake, Spleen (GR [2]; mice given vehicle): 1.55 ± 0.1 % ID/g
radiotracer uptake, Stomach (GR [2]; mice given vehicle): 2.51 ± 0.4 % ID/g
brain uptake relative to (±)-^11C-YJH08 (GR [2]; normal mice, 20 min post injection): approximately three fold lower

Continued by falling Ki (GR [1]; [3]), values first:

Ki (GR [1]; [3]): 2.67 nM
SMILES: COc1cccc2oc(=O)c3c4c(ccc3c12)NC(C)(C)C=C4C [YJH02, 2,5-Dihydro-10-methoxy-5-oxo-2,2,4-trimethyl-1H-[1]benzopyrano [3,4-f]quinoline]

Ki (GR [1]; [3]): 2.35 nM
SMILES: CC1=CC(C)(C)Nc2ccc3c(c21)c(=O)oc1cccc(O)c13 [YJH01, 2,5-dihydro-10-hydroxy-5-oxo-2,2,4-trimethyl-1H-[1]benzopyrano [3,4-f]quinoline]

Ki (GR [1]; [4]): < 5 nM
Ki (GR [1]; [3]): 2.03 nM
SMILES: COc1cccc2c1-c1ccc3c(c1[C@H](Cc1ccc(F)cc1)O2)C(C)=CC(C)(C)N3 [(S)-YJH08]
